Results taken from article PMC5939191 (Chemical Science, 2018).
Counter-ions that a name gives are not always drawn.

Assay: Apparent aqueous solubility by the dissolution method
Details: water; for solubility: 22 °C, thermodynamic from solid

Row | SMILES | solubility (unusually high) | solubility [mg/mL]
1 | CCCC[N+]1(C)[C@@H]2C[C@@H](OC(=O)[C@H](CO)c3ccccc3)C[C@H]1[C@@H]1O[C@@H]12 (stereo partly drawn) [[Bs]Br, Butyl scopolammonium bromide] | more than one gram per milliliter | 1800 ± 200
2 | O=c1n(CCCN2CCN(c3cccc(Cl)c3)CC2)nc2ccccn12 [[TrH]Cl, Trazodone hydrochloride] | – | 38.5 ± 0.2
